Measured values published in patent publication US10564164B2, “Fluorescent probe, singlet oxygen detection agent, and singlet oxygen detection method” (Osaka University, priority 2014, dated 2020).

Tests used:
HeLa cells = experiment: Viable cell imaging / localization in organelle; format: cell-based; settings: Si-DMA 20 nM / 100 nM, co-staining with Mito Tracker Green FM
Experimental: A treatment requiring incubation of less than two hours was performed using a serum-free culture medium containing 20 mM of HEPES, and a treatment requiring incubation of four hours or more was performed using a blood serum-containing medium containing 20 mM of HEPES so as to maintain the cell viability. To label mitochondria, Mito Tracker® Green FM was diluted to 50 nM, and incubated for 30 minutes. Further, 10000 MW of dextran (A488- and A647-dextran) labeled with Alexa Fluor® 488 or Alexa Fluor® 647 was diluted to 50 μg/mL, and incubated for 24 hours, thereby staining lysosome.
Subsequently, a quick protocol provided by Molecular Probe® for introducing CellROX Green was followed. […] As a result, as previously reported, the conversion of 5-ALA into protoporphyrin IX (PpIX) in the mitochondria was confirmed by the fluorescence luminescence of PpIX.
In order to monitor an increase in fluorescence upon light irradiation on Si-DMA of Example 1, irradiation on reactive oxygen species was performed while monitoring the probe using an IX81 inverted fluorescence microscope (Olympus Corporation) and 640-nm CW laser (Coherent). […] The images of luminescence were collected and recorded by an EMCCD camera (Evolve 512; Roper Scientific) via a dichroic beam splitter (DI02-R635; Semrock) and a bandpass filter (HQ690/70; Chroma). […]

[1] = Fluorescence change after singlet oxygen generated chemically by NaOCl and H2O2; format: physicochemical; settings: for fluorescence depending on concentration of singlet oxygen: NaClO and H2O2, DMSO:methanol:tris buffer 1:49:50, 5 μM
Experimental: Further, singlet oxygen was introduced into Si-DMA using a chemical catalyst. More specifically, singlet oxygen was introduced using 10 mM NaOCl and 10 mM H2O2. In this case as well, a spectral change similar to that in FIG. 1 was observed. […] The black arrow in FIG. 4a) and the red arrow in FIG. 4b) respectively show a loss of the anthracene structure, and an increase in the fluorescence of Si-DMA. The fluorescence increased about 10 times by 10-minute incubation using NaOCl and H2O2. By introducing a greater amount of singlet oxygen, more Si-DMA is expected to change into Si-DMEP.
The measurement was performed by generating singlet oxygen using NaClO and H2O2 in a solution containing DMSO:methanol:tris buffer agent=1:49:50 (Si-DMA concentration=5 μM).

[2] = Selectivity test against various reactive oxygen species; format: physicochemical; settings: 5 μM in methanol:PBS pH 7.4 1:1, 10 minutes in dark
Experimental: A test was performed to confirm whether Si-DMA of Example 1 causes no self-oxidation of dye and is selectively responsive to singlet oxygen.
However, formation of aggregates decreases the effective concentration of the dye, thereby decreasing the reaction speed of Si-DMA. Therefore, a 5-μM Si-DMA solution was first prepared using a mixed solvent containing methanol and a pH 7.4 PBS buffer solution mixed at 1:1. In this solution, Si-DMA was present as a monomer. Subsequently, 10-mM solutions of various reactive oxygen species (ROS)(^1O2, O2.^−, H2O2, HOCl, ROO., and .OH) were prepared by adding the following additives to the 5-μM Si-DMA solution obtained above.
5. ROO.: 10 mM 2,2-azobis(2-amidinopropane)dihydrochloride
Under intense magnetic stirring, each Si-DMA solution containing reactive oxygen species (ROS) was stored for 10 minutes in a dark room. […]

With `Cc1c2ccccc2c(C)c2cc(C3=C4C=CC(=[N+](C)C)C=C4[Si](C)(C)c4cc(N(C)C)ccc43)ccc12` [Si-DMA] the intracellular localization (HeLa cells) was “selectively localized in mitochondria”, the increase of fluorescence ([1]; 10 mM NaOCl and 10 mM H2O2, 10-minute incubation) was “about 10 times” and the “fluorescence depending on concentration of singlet oxygen” value ([1]; aggregate) was “increase in fluorescence in proportion to the concentration of singlet oxygen”. The “fluorescence depending on concentration of singlet oxygen” value ([1]; monomer) was “increase in fluorescence in proportion to the concentration of singlet oxygen”, the “fluorescence intensity in the presence of reactive oxygen species” value ([2]; other reactive oxygen species (O2.-, H2O2, HOCl, ROO., .OH)) was “no increase in fluorescence was observed” and the “fluorescence intensity in the presence of reactive oxygen species” value ([2]; singlet oxygen (10 mM NaOCl and 10 mM H2O2)) was “significantly increased”.
